This assay concerns Candida albicans SC5314. Nature of the assay: Morphology assay (light microscope and SEM). To be noted: 1 x 10^6 CFU/mL, RP medium, 8 hours 37°C; 200 nM TDNs, 20 µM His‐5 or 200 nM TDN/His‐5 (1:100); bright field images. The assay is classed as cell-based. The method, then:
Candida albicans SC5314 (wild type) obtained from our laboratory were commercially from the American Type Culture Collection. ^34 Candida albicans strains were propagated on liquid or solid YPD medium at 30°C. The yeast cells used in all experiments were in the exponential growth phase (OD600 = 0.6). For inducing hyphae, C. albicans cells were grown in RPMI 1640 medium containing 2.5% foetal calf serum, 2 mM L‐glutamine, 20 mM HEPES and 16 mM sodium hydrogen carbonate (pH 7.0) (RP medium) at 37°C.
After fixation, the samples were dehydrated with a gradient series of ethanol. Specimens were observed under a Leica DM1000 microscope (Leica Microsystems) and a scanning electron microscope (Inspect F, FEI, America). ^40 , ^44

Histatin 5: the “Morphology of C. albicans (hyphae formation)” value is “more yeast cells and fewer hyphae”.

Source of the values: article PMC8088467 (Cell Proliferation, 2021).
